Entries after “also recorded” stand apart in the source; their conditions may differ.
Tested on: LPR mouse model (pepsin-mediated laryngeal damage)
Test: in vivo LPR mouse model: mechanical injury plus laryngeal pepsin instillation, H&E histology
Conditions: for protection against pepsin-mediated laryngeal damage (histology): 0.3 mg/ml pepsin pH7, 4 weeks
Description: Three replicate animals per treatment condition were anticipated to suffice for verification of reproducibility in each experiment without excessive use of animal life. The three mice were randomly allocated to treatment groups. No data were excluded from analysis.
Six-week-old female Jackson A/J mice (Jackson Laboratory, Bar Harbor, ME) were fed D-62 powdered Wattenberg diet, 2 g/mouse/day^95 and allowed to acclimate for one week upon arrival prior to experiments. In accord with previously established methods for modeling aerodigestive tract damage attributed to GERD and LPR,^1,95-99 mechanical injury applied during the first two weeks of a four-week treatment course was used to predispose the laryngeal mucosa to chemical injury by pepsin/acid applied throughout the four weeks. […] Briefly, anesthetized mice were suspended by upper teeth on a slanted board under an operating microscope.
In a preliminary experiment to validate the LPR mouse model (i.e. laryngeal damage by pepsin at neutral and acidic pH), 20 μl saline (solvent control) or 0.3 mg/ml pepsin at pH7.0 or 4.0 were provided to mice (n=3) by laryngeal instillation at 24, 48, and 72 hours after mechanical injury during weeks 1 and 2 (FIG. 6); laryngeal instillation without wounding (3 days/week) continued during weeks 3 and 4. […] Mice were sacrificed at conclusion of the fourth week.
To test the protective effect of HIV protease inhibitors on pepsin-mediated damage in vivo, inhibitors were delivered by aerosol or gavage concurrently with wounding (days 2, 8) and solvent/pepsin instillation (days 3-5, 9-11, 16-18 and 23-25). Aerosol or gavage was provided on days 1-5, 8-12, 15-19, and 22-25, and mice sacrificed day 26. Mice were anesthetized with isoflurane (3% in 2.5LPM, 3-5 minutes prior to procedures) as opposed to Avertin due to frequency. […] Aerosol was generated as described^100. Briefly, a 10 ml suspension of drug in ethanol was placed in the baffle, such that the concentration would remain constant at the equilibrium solubility. Droplets of ethanol containing dissolved drug were generated by an ultrasonic atomizer (nominal frequency 1.7 MHz) and entrained by air at a flow rate of 0.5 LPM with a custom-built glass baffle (UMN Department of Chemistry Glass Shop). The aerosol cloud was then passed through a cylindrical drying column containing an annular ring of charcoal. The ethanol was removed and the emanating dry aerosol particles of pure drug were then directed into the exposure chamber. The mass deposited on filters was measured gravimetrically and total output rate (mg/min) was determined. The aerosol concentration (mass/volume of air) was calculated by dividing the total output rate by the air flow rate (0.5 LPM). The inhaled mass of drug (Minh) for each mouse was defined as Minh=[Aerosol]*RMV*t, where Aerosol is the aerosol concentration of drug, RMV is the respiratory minute volume of the mice (0.025 L/min), and t is the aerosol exposure time. […] Actual mass deposited was not determined but anticipated to be 10% of inhaled mass (the deposition fraction of […] aerosol particles in mice).
Tissues were collected, fixed in paraformaldehyde, embedded in paraffin and 4 um sections stained with hematoxylin and eosin (H&E) via automated stainer. Slides were reviewed by a board-certified pathologist (JM) blinded to treatment groups.

CC(C)CN(C[C@@H](O)[C@H](Cc1ccccc1)NC(=O)O[C@H]1CO[C@H]2OCC[C@H]21)S(=O)(=O)c1ccc(N)cc1 [darunavir, [(3aS,4R,6aR)-2,3,3a,4,5,6a-hexahydrofuro[2,3-b]furan-4-yl]N-[(2S,3R)-4-[(4-aminophenyl)sulfonyl-(2-methylpropyl)amino]-3-hydroxy-1-phenylbutan-2-yl]carbamate]
laryngeal histology, drug with saline (solvent), no pepsin (aerosol): absent
protection against pepsin-mediated laryngeal damage (histology) (aerosol, inhaled mass 0.93 mg/kg/day fosamprenavir, 12 mg/kg/day darunavir): moderate protection against pepsin-mediated damage; also recorded: mild protection against pepsin-mediated damage
laryngeal histology, drug with saline (solvent), no pepsin (gavage): Mild reactivity
protection against pepsin-mediated laryngeal damage (histology) (gavage, 20 mg/kg/day fosamprenavir (Lexiva), 8.6 mg/kg/day darunavir (Prezista)): obscured the ability to detect its effect on pepsin-mediated damage and not and appeared similar
laryngeal histology, drug with saline (solvent), no pepsin (gavage, listed as Darunavir): mild reactivity (rare intraepithelial lymphocytes)

Reference: patent publication US20240041764A1, “Sustained-Release Oral Fosamprenavir Formulation for Treatment of Reflux” (The Medical College of Wisconsin, Inc., priority 2022, published 2024)
